In paper PMC6092513, “Mechanisms Underlying the Strong Inhibition of Muscle-Type Nicotinic Receptors by Tetracaine” (Frontiers in Molecular Neuroscience, 2018):

Legend:
[1] = molecular target: T1, muscle-type nicotinic acetylcholine receptor (nAChR) (Torpedo marmorata, UniProt P02711+Q6S3H8+Q6S3H9+Q6S3I0); test: two-electrode voltage clamp, ACh concentration-current curve in Xenopus oocytes bearing transplanted nAChRs; assay type: cell-based
T1 construct: gene CHRNA1; native heteropentameric receptor purified from electroplaques, reconstituted in asolectin lipids and transplanted to Xenopus oocytes; with beta1, gamma and delta nAChR subunits (CHRNB1, CHRNG, CHRND) with two alpha1
T1 sequence (P02711 25-461): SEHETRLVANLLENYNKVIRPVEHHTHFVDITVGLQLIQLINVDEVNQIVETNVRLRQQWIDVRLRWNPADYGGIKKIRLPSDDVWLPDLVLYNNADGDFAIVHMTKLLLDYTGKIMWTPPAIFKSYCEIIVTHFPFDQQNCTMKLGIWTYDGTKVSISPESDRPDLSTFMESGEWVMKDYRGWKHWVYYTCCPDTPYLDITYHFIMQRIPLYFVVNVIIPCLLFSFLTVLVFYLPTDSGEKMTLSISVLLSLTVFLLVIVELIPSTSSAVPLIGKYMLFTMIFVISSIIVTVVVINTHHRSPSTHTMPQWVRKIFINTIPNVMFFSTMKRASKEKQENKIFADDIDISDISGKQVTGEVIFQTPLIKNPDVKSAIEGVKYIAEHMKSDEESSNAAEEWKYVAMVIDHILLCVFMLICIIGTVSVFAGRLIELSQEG
T1 sequence (Q6S3I0 25-493): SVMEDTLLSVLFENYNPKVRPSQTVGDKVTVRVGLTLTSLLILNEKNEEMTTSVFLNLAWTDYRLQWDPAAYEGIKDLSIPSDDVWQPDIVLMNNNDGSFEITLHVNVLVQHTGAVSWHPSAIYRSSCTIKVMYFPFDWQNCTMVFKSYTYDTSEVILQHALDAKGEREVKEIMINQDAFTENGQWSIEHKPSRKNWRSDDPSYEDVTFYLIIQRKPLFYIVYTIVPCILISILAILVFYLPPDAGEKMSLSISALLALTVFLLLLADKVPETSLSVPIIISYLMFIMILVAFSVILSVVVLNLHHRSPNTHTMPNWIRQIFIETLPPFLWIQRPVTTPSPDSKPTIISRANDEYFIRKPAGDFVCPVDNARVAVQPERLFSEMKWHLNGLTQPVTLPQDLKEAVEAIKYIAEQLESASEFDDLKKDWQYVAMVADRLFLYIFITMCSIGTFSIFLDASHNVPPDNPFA
T1 sequence (Q6S3H9 18-505): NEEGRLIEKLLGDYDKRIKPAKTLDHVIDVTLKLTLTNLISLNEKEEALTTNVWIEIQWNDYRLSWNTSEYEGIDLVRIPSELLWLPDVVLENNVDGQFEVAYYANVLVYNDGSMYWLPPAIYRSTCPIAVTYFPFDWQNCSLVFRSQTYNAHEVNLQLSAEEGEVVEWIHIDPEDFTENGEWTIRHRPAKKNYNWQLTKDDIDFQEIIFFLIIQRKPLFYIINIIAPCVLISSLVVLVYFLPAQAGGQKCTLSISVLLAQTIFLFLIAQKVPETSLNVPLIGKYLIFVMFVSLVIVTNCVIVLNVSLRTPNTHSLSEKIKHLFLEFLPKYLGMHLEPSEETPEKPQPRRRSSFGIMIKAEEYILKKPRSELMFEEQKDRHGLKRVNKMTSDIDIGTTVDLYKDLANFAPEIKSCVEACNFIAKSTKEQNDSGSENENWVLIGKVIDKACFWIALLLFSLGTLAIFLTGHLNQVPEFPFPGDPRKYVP
T1 sequence (Q6S3H8 22-522): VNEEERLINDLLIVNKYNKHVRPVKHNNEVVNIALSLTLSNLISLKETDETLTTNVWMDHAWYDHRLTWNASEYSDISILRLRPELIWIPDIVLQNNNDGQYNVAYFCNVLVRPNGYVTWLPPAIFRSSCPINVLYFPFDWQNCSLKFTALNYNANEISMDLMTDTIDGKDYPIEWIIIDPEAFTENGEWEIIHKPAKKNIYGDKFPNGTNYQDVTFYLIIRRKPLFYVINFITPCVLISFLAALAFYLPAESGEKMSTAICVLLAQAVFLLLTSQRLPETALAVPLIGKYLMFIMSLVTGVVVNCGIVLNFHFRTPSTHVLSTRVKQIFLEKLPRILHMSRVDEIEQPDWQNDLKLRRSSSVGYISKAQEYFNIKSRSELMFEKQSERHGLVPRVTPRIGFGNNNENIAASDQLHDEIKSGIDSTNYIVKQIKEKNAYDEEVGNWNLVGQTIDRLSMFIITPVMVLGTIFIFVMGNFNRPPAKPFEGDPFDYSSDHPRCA

[2] = molecular target: T1, muscle-type nicotinic acetylcholine receptor (nAChR); test: two-electrode voltage clamp of ACh-elicited peak currents ([…] ACh) in Xenopus oocytes bearing transplanted nAChRs; assay type: cell-based

Compound: CC(=O)OCC[N+](C)(C)C [ACh, acetylcholine]
- EC50 [1]: 37 µM

Compound: CCCCNc1ccc(C(=O)OCCN(C)C)cc1 [Ttc, 2-(dimethylamino)ethyl 4-(butylamino)benzoate]
- IC50 [2]: 0.7 µM
